Test results taken from PubChem BioAssay AID1918942 (Molecular Pharmacology Branch, DTP, NCI, 2023).

Tested on: 743489-274-T-PDC complex spheroid viability
Test: Anticancer human tumor 743489-274-T-PDC patient-derived renal cell carcinoma cell line growth inhibition
Conditions: for IC50: curve of first compound; for viability, T/C: stronger effect = lower value
Source text: Multicellular complex tumor spheroid response to LSD1 Inhibitor Iadademstat in combination with a variety of drugs and investigational agents in selected tumor cell lines
The current study was undertaken to assess response to LSD1 inhibitors in combination with standard-of-care drugs and investigational agents in solid tumor complex spheroid models as well as in the K-562 leukemia. Complex spheroids include a stromal component modeled by human endothelial cells (HUVEC) and fibroblasts modeled by human mesenchymal stem cells (MSCs). The concentration ranges selected for each drug and investigational agent were based upon clinically achievable concentrations if the clinical Cmax of the agent was known.
Compounds. The drugs and investigational agents used in this study are listed on Table 1. All of the agents used, including staurosporine (NSC755774) and gemcitabine (NSC613327), were obtained from the Developmental Therapeutics Program, NCI. FDA-approved anticancer drugs are available from the NCI at http://dtp.nci.nih.gov/branches/dscb/oncology_drugset_explanation.html. Drugs and investigational agents were >95% pure by proton nuclear magnetic resonance (NMR) and liquid chromatography/mass spectrometry (LC/MS). Stock solutions were prepared at 400x in DMSO, stored at -70 degrees C, and diluted in fresh medium prior to their use. The final concentration of DMSO in cell culture wells never exceeded 0.25% (v/v). The FDA-approved anticancer drug set is available from the Developmental Therapeutics Program at https://dtp.cancer.gov/organization/dscb/obtaining/available_plates.htm. All drugs and investigational agents were tested over a range starting from a high concentration at or near the clinical Cmax and decreasing in half-log increments. If the clinical Cmax for an agent had not been determined, the highest concentration tested was 10 microM.
Cell Lines. The patient-derived cancer cell (PDC) lines: 292921-168-R-J2-PDC, K24384-001-R-PDC, and 521955-158-R2-J5-PDC pancreatic carcinomas, 556581-035-R-J1 ovarian carcinoma, 324938-238-R-J1-PDC, 855422-203-R-J1-PDC and 883617-216-R-J1-PDC urothelial bladder carcinomas, 743489-274-T-PDC renal cell carcinoma, 138582-R-J1 Merkel cell tumor, K60290-347-R-J1 and K57222-313-R-J1-PDC glioblastomas, 653999-131-R-J2-PDC, LG0703-F948-PDC, and 349418-098-R-PDC non-small cell lung carcinomas, 885512-296-R-J2-PDC, 171881-019-R-J1-PDC breast carcinomas and 186277-243-T-J2-PDC and 233499-124-R-J2-PDC colon carcinomas were obtained from the NCI Patient-Derived Models Repository (PDMR, https://pdmr.cancer.gov). The established cell lines NCI/ADR-RES (RRID:CVCL_14520 and OVCAR-5 (RRID:CVCL_1628) ovarian carcinomas, 786-O (RRID:CVCL_1051) and A498 (RRID:CVCL_A498) renal cell carcinoma, NCI-H211 (ATCC, cat. CRL-5824; RRID:CVCL_1529), NCI-H196 (ATCC, cat. CRL-5823, RRID:CVCL_1509), SW 1271 (ATCC, cat. CRL-2177, RRID:CVCL_1716) and NCI-H1876 (ATCC, cat. CRL-5902, RRID:CVCL_1503) small cell lung carcinomas, MDA-MB-231 (RRID:CVCL_0062) and MDA-MB-468 (RRID:CVCL_0419)breast carcinomas (10-12). Pooled donor human umbilical vein endothelial cells (HUVEC, Lonza, cat. CC-2519) and human mesenchymal stem cells (hMSC, Lonza, cat. PT-2501) were purchased from Lonza (Walkersville, MD).
Cell Culture. All cells were maintained in an incubator at 37 degrees C and 5% CO2 with 95% humidity. The PDC lines were cultured according to standard operating procedures established by the NCI PDMR (https://pdmr.cancer.gov). Briefly all PDCs were thawed and cultured in Matrigel-coated flasks prepared with a working solution of 1X Ham's F-12 nutrient mix, without supplementation (Invitrogen, Waltham, MA, cat. 11765054), 100 U/mL penicillin-streptomycin (Invitrogen, cat. 15140122), and 2.5% Matrigel (Corning Inc., Corning, NY, cat. 354248) for the first three passages. […]

[1] = second compound 0.1 µM, first compound 0.00316 µM
[2] = second compound 0.1 µM, first compound 0.01 µM
[3] = second compound 0.1 µM, first compound 0.0316 µM
[4] = second compound 0.1 µM, first compound 0.1 µM
[5] = second compound 0.316 µM, first compound 0.00316 µM
[6] = second compound 0.316 µM, first compound 0.01 µM
[7] = second compound 0.316 µM, first compound 0.0316 µM
[8] = second compound 0.316 µM, first compound 0.1 µM
[9] = second compound 1 µM, first compound 0.00316 µM
[10] = second compound 1 µM, first compound 0.01 µM
[11] = second compound 1 µM, first compound 0.0316 µM
[12] = second compound 1 µM, first compound 0.1 µM
[13] = second compound 3.16 µM, first compound 0.00316 µM
[14] = second compound 3.16 µM, first compound 0.01 µM
[15] = second compound 3.16 µM, first compound 0.0316 µM
[16] = second compound 3.16 µM, first compound 0.1 µM
[17] = second compound 10 µM, first compound 0.00316 µM
[18] = second compound 10 µM, first compound 0.01 µM
[19] = second compound 10 µM, first compound 0.0316 µM
[20] = second compound 10 µM, first compound 0.1 µM
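Also: spheroids exposed to compounds for 7 days before readout.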
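For viability, T/C in this document: 100% = DMSO vehicle control wells.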

CC[C@@]1(O)C(=O)OCc2c1cc1n(c2=O)Cc2cc3c(CN(C)C)c(O)ccc3nc2-1 + NC1CC1c1ccc(-c2cccc(O)c2)cc1
IC50 (second compound 0.1 µM): > 100 nM | IC50 (second compound 0.316 µM): > 100 nM | IC50 (second compound 1 µM): > 100 nM | IC50 (second compound 3.16 µM): 58.7 nM | IC50 (second compound 10 µM): > 100 nM | viability, T/C (second compound 0.1 µM, first compound 0.000316 µM): 98.9% | viability, T/C (second compound 0.1 µM, first compound 0.001 µM): 95.7% | viability, T/C [1]: 104% | viability, T/C [2]: 97.8% | viability, T/C [3]: 66.4% | viability, T/C [4]: 55.7% | viability, T/C (second compound 0.316 µM, first compound 0.000316 µM): 103% | viability, T/C (second compound 0.316 µM, first compound 0.001 µM): 99.6% | viability, T/C [5]: 89.7% | viability, T/C [6]: 74.3% | viability, T/C [7]: 67.9% | viability, T/C [8]: 53.9% | viability, T/C (second compound 1 µM, first compound 0.000316 µM): 97.7% | viability, T/C (second compound 1 µM, first compound 0.001 µM): 100% | viability, T/C [9]: 80% | viability, T/C [10]: 76.3% | viability, T/C [11]: 68.5% | viability, T/C [12]: 55.3% | viability, T/C (second compound 3.16 µM, first compound 0.000316 µM): 101% | viability, T/C (second compound 3.16 µM, first compound 0.001 µM): 86.7% | viability, T/C [13]: 78.3% | viability, T/C [14]: 69.9% | viability, T/C [15]: 53.8% | viability, T/C [16]: 45% | viability, T/C (second compound 10 µM, first compound 0.000316 µM): 120% | viability, T/C (second compound 10 µM, first compound 0.001 µM): 93% | viability, T/C [17]: 90.6% | viability, T/C [18]: 70.5% | viability, T/C [19]: 77.6% | viability, T/C [20]: 50.3%

COc1cc(C2c3cc4c(cc3C(OC3OC5COC(C)OC5C(O)C3O)C3COC(=O)C23)OCO4)cc(OC)c1O (stereo not given) + NC1CC1c1ccc(-c2cccc(O)c2)cc1
IC50 (second compound 0.1 µM): > 3000 nM | IC50 (second compound 0.316 µM): > 3000 nM | IC50 (second compound 1 µM): > 3000 nM | IC50 (second compound 3.16 µM): > 3000 nM | IC50 (second compound 10 µM): > 3000 nM | viability, T/C (second compound 0.1 µM, first compound 0.00949 µM): 107% | viability, T/C (second compound 0.1 µM, first compound 0.03 µM): 91.7% | viability, T/C (second compound 0.1 µM, first compound 0.0949 µM): 98% | viability, T/C (second compound 0.1 µM, first compound 0.3 µM): 88.7% | viability, T/C (second compound 0.1 µM, first compound 0.949 µM): 77.6% | viability, T/C (second compound 0.1 µM, first compound 3 µM): 76.9% | viability, T/C (second compound 0.316 µM, first compound 0.00949 µM): 103% | viability, T/C (second compound 0.316 µM, first compound 0.03 µM): 99.5% | viability, T/C (second compound 0.316 µM, first compound 0.0949 µM): 91.9% | viability, T/C (second compound 0.316 µM, first compound 0.3 µM): 76.7% | viability, T/C (second compound 0.316 µM, first compound 0.949 µM): 74.6% | viability, T/C (second compound 0.316 µM, first compound 3 µM): 79.7% | viability, T/C (second compound 1 µM, first compound 0.00949 µM): 92.8% | viability, T/C (second compound 1 µM, first compound 0.03 µM): 104% | viability, T/C (second compound 1 µM, first compound 0.0949 µM): 91.5% | viability, T/C (second compound 1 µM, first compound 0.3 µM): 92.2% | viability, T/C (second compound 1 µM, first compound 0.949 µM): 85.8% | viability, T/C (second compound 1 µM, first compound 3 µM): 76.5% | viability, T/C (second compound 3.16 µM, first compound 0.00949 µM): 87.9% | viability, T/C (second compound 3.16 µM, first compound 0.03 µM): 95.2% | viability, T/C (second compound 3.16 µM, first compound 0.0949 µM): 87.6% | viability, T/C (second compound 3.16 µM, first compound 0.3 µM): 87.5% | viability, T/C (second compound 3.16 µM, first compound 0.949 µM): 78.6% | viability, T/C (second compound 3.16 µM, first compound 3 µM): 79.3% | viability, T/C (second compound 10 µM, first compound 0.00949 µM): 97.2% | viability, T/C (second compound 10 µM, first compound 0.03 µM): 89.9% | viability, T/C (second compound 10 µM, first compound 0.0949 µM): 97% | viability, T/C (second compound 10 µM, first compound 0.3 µM): 83.9% | viability, T/C (second compound 10 µM, first compound 0.949 µM): 80.7% | viability, T/C (second compound 10 µM, first compound 3 µM): 70.4%

Nc1ncn(C2CC(O)C(CO)O2)c(=O)n1 (stereo not given) + NC1CC1c1ccc(-c2cccc(O)c2)cc1
IC50 (second compound 0.1 µM): > 1000 nM | IC50 (second compound 0.316 µM): > 1000 nM | IC50 (second compound 1 µM): > 1000 nM | IC50 (second compound 3.16 µM): > 1000 nM | IC50 (second compound 10 µM): > 1000 nM | viability, T/C [1]: 109% | viability, T/C [2]: 101% | viability, T/C [3]: 97.9% | viability, T/C [4]: 95.1% | viability, T/C (second compound 0.1 µM, first compound 0.316 µM): 91.2% | viability, T/C (second compound 0.1 µM, first compound 1 µM): 117% | viability, T/C [5]: 104% | viability, T/C [6]: 101% | viability, T/C [7]: 97.7% | viability, T/C [8]: 91.5% | viability, T/C (second compound 0.316 µM, first compound 0.316 µM): 102% | viability, T/C (second compound 0.316 µM, first compound 1 µM): 95.3% | viability, T/C [9]: 107% | viability, T/C [10]: 110% | viability, T/C [11]: 94.1% | viability, T/C [12]: 89.6% | viability, T/C (second compound 1 µM, first compound 0.316 µM): 90% | viability, T/C (second compound 1 µM, first compound 1 µM): 93% | viability, T/C [13]: 93.2% | viability, T/C [14]: 102% | viability, T/C [15]: 105% | viability, T/C [16]: 88.2% | viability, T/C (second compound 3.16 µM, first compound 0.316 µM): 82.5% | viability, T/C (second compound 3.16 µM, first compound 1 µM): 86.8% | viability, T/C [17]: 102% | viability, T/C [18]: 126% | viability, T/C [19]: 104% | viability, T/C [20]: 99.7% | viability, T/C (second compound 10 µM, first compound 0.316 µM): 83.2% | viability, T/C (second compound 10 µM, first compound 1 µM): 88.6%
